The nature of series [1]: AUC in Sprague-Dawley rat at 2 mg/kg, po or 1 mg/kg, iv administered as cassette dose measured after 24 hrs. The format is ADME, organism-based. The arrangement: time 24 hrs, dose 2 mg/kg. The conditions noted are these: in vivo.
The nature of series [2]: Oral bioavailability in Sprague-Dawley rat at 2 mg/kg administered as cassette dose measured after 24 hrs. The format is ADME, organism-based. The conditions noted are these: in vivo.
The nature of series [3]: Half life in Sprague-Dawley rat at 2 mg/kg, po or 1 mg/kg, iv administered as cassette dose measured after 24 hrs. Format: ADME, organism-based. Conditions: in vivo.
A short description of series [4]: Solubility of the compound in FaSSIF by HPLC analysis. Format: physicochemical.
The nature of series [5]: Inhibition of phosphorylated FGFR2alpha in human KATO III stomach cancer cell line spiked in human whole blood incubated for 4 hrs by ELISA. Format: tissue-based. For orientation: In an ELISA, binding on a coated surface is turned into a signal by an enzyme label.
Series [6] is described as follows: Clearance in Sprague-Dawley rat at 2 mg/kg, po or 1 mg/kg, iv administered as cassette dose measured after 24 hrs relative to hepatic blood flow. The conditions noted are these: in vivo. Format: ADME, organism-based.
A short description of series [7]: Volume of distribution at steady state in Sprague-Dawley rat at 2 mg/kg, po or 1 mg/kg, iv administered as cassette dose measured after 24 hrs. The format is ADME, organism-based. The conditions noted are these: in vivo, read-out: Vdss.
Series [8] can be described thus: Intrinsic clearance in human liver microsomes at 1 uM measured up to 30 mins in presence of NADPH by LC/MS analysis. Format: ADME, Microsome. The conditions noted are these: read-out: CLH (converted). Background: Liver microsomes are vesicles of endoplasmic reticulum, rich in cytochrome P450 enzymes.
A short description of series [9]: Permeability across apical to basolateral membrane in human Caco-2 cells at 50 uM incubated for 120 mins by LC-MS/MS analysis. The format is ADME, cell-based. Conditions: read-out: permeability.
A further series relates to NCI-H1581. Kind of series: Antiproliferative activity against human NCI-H1581 cells assessed as inhibition of cell proliferation incubated for 3 days by Cell Titer Aqueous96 one solution reagent assay. Conditions: NCI-H1581, 72 h.
Series [10] can be described thus: Antiproliferative activity against human B49 assessed as inhibition of cell proliferation incubated for 3 days by Cell Titer Aqueous96 one solution reagent assay. Conditions: KATO III, 72 h.
For series [11], the target named is Vascular endothelial growth factor receptor 2 (Homo sapiens, UniProt P35968). In words: Inhibition of human recombinant N-terminal His6-tagged VEGFR2 expressed in baculovirus infected Sf21insect cells using biotin-labeled EQEDEPEGDYFEWLE peptide as substrate incubated for 20 mins in presence of ATP by plate reader assay. The arrangement: species or system Sf21.

≈ marks a conversion by molar mass, not a printed value.

Vascular endothelial growth factor receptor 2, sequence (P35968 whole entry): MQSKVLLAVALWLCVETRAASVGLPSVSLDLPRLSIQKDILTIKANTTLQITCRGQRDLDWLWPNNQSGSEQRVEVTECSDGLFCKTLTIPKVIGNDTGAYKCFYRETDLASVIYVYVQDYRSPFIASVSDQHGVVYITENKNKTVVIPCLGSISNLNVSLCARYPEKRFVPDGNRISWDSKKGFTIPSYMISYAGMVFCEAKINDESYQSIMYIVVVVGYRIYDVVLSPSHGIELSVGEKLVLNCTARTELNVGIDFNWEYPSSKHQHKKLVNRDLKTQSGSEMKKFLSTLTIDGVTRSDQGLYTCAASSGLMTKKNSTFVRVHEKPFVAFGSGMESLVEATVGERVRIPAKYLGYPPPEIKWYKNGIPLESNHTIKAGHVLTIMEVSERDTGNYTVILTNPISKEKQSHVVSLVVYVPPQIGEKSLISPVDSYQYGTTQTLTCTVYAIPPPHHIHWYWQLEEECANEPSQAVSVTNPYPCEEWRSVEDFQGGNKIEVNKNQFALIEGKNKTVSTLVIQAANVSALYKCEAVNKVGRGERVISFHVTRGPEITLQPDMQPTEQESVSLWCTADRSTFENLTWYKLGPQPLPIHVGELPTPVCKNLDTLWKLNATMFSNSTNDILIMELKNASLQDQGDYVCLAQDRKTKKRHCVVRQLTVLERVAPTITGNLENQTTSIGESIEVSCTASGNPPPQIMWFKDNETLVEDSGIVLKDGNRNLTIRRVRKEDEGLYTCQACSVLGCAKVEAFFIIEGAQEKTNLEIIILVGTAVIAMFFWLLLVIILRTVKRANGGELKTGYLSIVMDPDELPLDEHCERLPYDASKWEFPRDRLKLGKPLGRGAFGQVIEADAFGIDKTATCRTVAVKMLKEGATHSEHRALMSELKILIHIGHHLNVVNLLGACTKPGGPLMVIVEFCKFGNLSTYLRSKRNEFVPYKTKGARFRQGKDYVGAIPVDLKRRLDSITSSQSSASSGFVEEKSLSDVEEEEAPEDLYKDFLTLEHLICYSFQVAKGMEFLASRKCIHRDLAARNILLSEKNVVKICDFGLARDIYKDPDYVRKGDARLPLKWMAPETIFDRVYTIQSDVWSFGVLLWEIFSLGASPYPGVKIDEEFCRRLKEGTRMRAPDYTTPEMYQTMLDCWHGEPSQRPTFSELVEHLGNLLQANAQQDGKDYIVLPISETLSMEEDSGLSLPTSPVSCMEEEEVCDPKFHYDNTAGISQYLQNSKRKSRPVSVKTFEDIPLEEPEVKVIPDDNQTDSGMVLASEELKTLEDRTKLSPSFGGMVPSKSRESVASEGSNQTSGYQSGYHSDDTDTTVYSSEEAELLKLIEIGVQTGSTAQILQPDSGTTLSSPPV

A word on the AUC: it is the area under the concentration-time curve, a measure of exposure. Low values mean low exposure, high ones high exposure. A word on the bioavailability: it is the share of a dose that reaches the circulation, judged against a reference dose that is usually intravenous. Read a low bioavailability as little systemic uptake. Broadly, the half-life is how long it takes for the measured level to halve. As usually defined, the solubility is the dissolved amount per volume that the medium holds. By IC50 is commonly meant the concentration at which inhibition is half-maximal. `COc1cc(OC)c(F)c(N2Cc3cnc4[nH]c(C5CCN(C)CC5)cc4c3N(C)C2=O)c1F` returned an AUC at 24 h in series [1] of 0.4 µM·h. The compound further showed a bioavailability in series [2] of 15%. Moreover, the half-life in [3] is 0.2 h. The compound further registered a solubility in series [4] of 44 µg/mL (≈ 93.3 µM). The IC50 in series [5] stood at 28 nM. In [6], this compound gave a CL of 45%. In addition, the Vd in series [7] was found to be 0.32 L/kg.

For `COc1cc(OC)c(F)c(N2Cc3cnc4[nH]ccc4c3N(CCN3CCN(C)CC3)C2=O)c1F`, the AUC at 24 h in [1] was 0.2 µM·h. The compound further had a bioavailability in [2] of 14%. The half-life in [3] was 4.6 h. The solubility in series [4] is 271 µg/mL (≈ 557 µM). The compound also yielded an IC50 in series [5] of 6.8 nM. Besides, in series [8], the CLint scaled at 1 µM was 15 mL/min/kg. The CL in series [6] worked out at 51%. Besides, the Papp A→B at 2 h, 50 µM in series [9] is 1 ×10⁻⁶ cm/s. Moreover, the Vd in series [7] worked out at 0.97 L/kg.

In turn, `COc1cc(OC)c(F)c(N2Cc3cnc4[nH]ccc4c3N([C@@H]3CCC[C@H]3O)C2=O)c1F` had a half-life in series [3] of 0.5 h. In series [4], this compound registered a solubility of 41 µg/mL (≈ 92.3 µM). The compound further registered an IC50 in series [5] of 8.6 nM. Besides, in [8], the CLint scaled at 1 µM is 13.3 mL/min/kg. In series [6], the CL is on record as 41%. The Papp A→B at 2 h, 50 µM in series [9] worked out at 3.3 ×10⁻⁶ cm/s. For the same compound, the Vd in [7] worked out at 0.41 L/kg.

In series [4], `COc1cc(OC)c(F)c(N2Cc3cnc4[nH]cc(-c5cnn(C)c5)c4c3N(C)C2=O)c1F` had a solubility of 20 µg/mL (≈ 44 µM). The compound further gave an IC50 in series [5] of 18 nM.

Compound `CCN1CCN(CCc2cc3c4c(cnc3[nH]2)CN(c2c(F)c(OC)cc(OC)c2F)C(=O)N4C)CC1` showed an AUC at 24 h in series [1] of 0.114 µM·h. Besides, the bioavailability in [2] turned out to be 6%. The half-life in [3] was 3.1 h. In series [4], the concentration in solution (solubility) was 372 µg/mL (≈ 723 µM). Moreover, the IC50 in series [5] was determined as 15 nM. In [6], this compound showed a CL of 64%. Besides, the Vd in series [7] was found to be 1 L/kg.

On to `COc1cc(OC)c(F)c(N2Cc3cnc4c(c3N(CCN3CCOCC3)C2=O)CC(=O)N4)c1F`, for which the results for the IC50 (in the series on NCI-H1581; in series [10]) were above 200 nM and 77 nM, respectively.

`COc1cc(OC)c(F)c(N2Cc3cnc4c(c3N(C)C2=O)C2(CCN(C)CC2)C(=O)N4)c1F`: the IC50 was above 200 nM with NCI-H1581 and 84 nM in series [10].

Consider `COc1cc(N2Cc3cnc4[nH]ccc4c3N(C)C2=O)c(Cl)c(OC)c1Cl`, for which the figures for the IC50 (in series [11]; with NCI-H1581; in series [10]) were above 2000 nM, 538 nM and 356 nM, respectively.

Regarding `COc1cc(OC)c(F)c(N2Cc3cnc4[nH]ccc4c3N(C3CCN(C)CC3)C2=O)c1F`, the AUC at 24 h in series [1] came out at 0.8 µM·h. In addition, in [2], the bioavailability was found to be 12%. For the same compound, in series [3], the half-life was 9.2 h. The compound further registered an IC50 in [5] of 29 nM. Moreover, the CLint scaled at 1 µM in series [8] was 13.3 mL/min/kg. This compound also returned a CL in series [6] of 21%. The Papp A→B at 2 h, 50 µM in series [9] stood at 1.1 ×10⁻⁶ cm/s. Also, in series [7], the Vd worked out at 0.72 L/kg.

With `COc1cc(OC)c(F)c(N2Cc3cnc4c(c3N(C)C2=O)C(C)(C)C(=O)N4)c1F`, the IC50 was above 200 nM in the series on NCI-H1581 and 106 nM in [10].

As to `COc1cc(OC)c(F)c(N2Cc3cnc4c(c3N(CCO)C2=O)CC(=O)N4)c1F`, the results for the IC50 (with NCI-H1581; in series [10]) were 48 nM and 18 nM, respectively.

As to `COc1cc(OC)c(F)c(N2Cc3cnc4c(c3N(C)C2=O)C2(CC2)C(=O)N4)c1F`, the solubility in [4] is 0.3 µg/mL (≈ 0.72 µM). Also, the IC50 was found to be 33 nM in series [5], 7 nM in the series on NCI-H1581 and 2 nM in [10].

In turn, `COc1cc(OC)c(F)c(N2Cc3cnc4c(c3N(c3ccc(C#N)cc3)C2=O)CC(=O)N4)c1F` yielded a solubility in [4] of 77 µg/mL (≈ 161 µM). Also, the IC50 turned out to be 45 nM with NCI-H1581 and 13 nM in [10].

As to `CCN1C(=O)N(c2c(F)c(OC)cc(OC)c2F)Cc2cnc3c(c21)C1(CC1)C(=O)N3`, the results for the 50% inhibitory concentration (IC50) (in the series on NCI-H1581; in series [10]) were above 200 nM and 38 nM, respectively.

`CCN1CCN(CCCc2cc3c4c(cnc3[nH]2)CN(c2c(F)c(OC)cc(OC)c2F)C(=O)N4C)CC1` showed a half-life in series [3] of 0.3 h. The compound also had a solubility in [4] of 472 µg/mL (≈ 893 µM). In series [5], this compound had an IC50 of 39 nM. The compound further came in with a CL in series [6] of 68%. For the same compound, the Vd in [7] was 0.51 L/kg.
